Laboratory results: US20220372013A2, “PIPERIDINE-2,6-DIONE DERIVATIVES AND CROHN'S DISEASE TREATING” (Tianjin Hemay Pharmaceutical Sci-Tech Co., Ltd, priority 2016, published 2022)
Marks after values point to notes of the source that are not given here.

What was measured:
mice = assay: Biological Example 5: acute toxicity experiment of single oral administration in mice; format: in vivo; details: single oral 1000 mg/Kg, Mean ± SD
Method in brief: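 Fasted ICR mice (19-21 g, three females and three males per group) received a single oral dose of 1000 mg/Kg, given first to one mouse of each sex and then to the remaining four. Behaviour, nervous and autonomic signs, and deaths were recorded over 0-15 min. Animals were then observed for 7 days with daily body weight.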

[1] = system: DNBS-Induced Inflammatory Bowel Disease Models in Rats; assay: Biological Example 3: DNBS-induced inflammatory bowel disease models in rats; format: in vivo, Wistar rats; details: 30 mg/Kg i.g. qd × 7; for Adhesion Degree of Colon / Colon weight to length ratio / Inhibitory rate of colon adhesion / Inhibitory rate of ulcer area of colon / Inhibitory rate of weight increase per length / Ulcer area of colon: day 7; for Body weight: Mean ± SD
Experimental: 102 male Wistar rats were fasted for 40 hours. A 5% glucose injection (10 mL/Kg) was administered subcutaneously during fasting. 72 rats with normal conditions and moderate body weight were selected from the fasting rats. The animals were randomly divided into 9 groups according to the body weight (see Table 9. Grouped Table).
The animals were anesthetized with ether after 40 hours fasting. A specially made gavage device was slowly inserted into the enteric cavity at 8 cm from the anus. The model control group and each test group were administered with 0.5 mL of 50 mg/mL DNBS in 30% ethanol solution. The normal control group was administered with 0.5 mL of 30% ethanol solution. The animals were inverted in anesthesia for 15 minutes. The day when the model was prepared was day 0 of the experiment. After 4 hours of DNBS induction, the corresponding drug or the corresponding volume of 1% CMC-Na was administered once per day. On day 7 of the experiment, the animals were euthanized to score the colon adhesion degree, measure the length of colon and ulcer area, weigh colon and calculate the colon weight to length ratio.
One-way ANOVA analysis of the length of colon and colon weight per length of rats was performed by SPSS22. Statistical analyses between groups were performed. The adhesion degree was scored. Mann-Whitney U non-parametric test was performed on ulcer area. Statistical analyses between groups were performed.
Calculation Formula of Inhibitory rate of weight increase per length: (Colon weight to length ratio in model group−Colon weight to length ratio in administration group)/(Colon weight to length ratio in model group−Colon weight to length ratio in blank group)

Structure (SMILES)	Daily Body Weight (mice; Female mice, Day 1)	Daily Body Weight (mice; Female mice, Day 2)	Daily Body Weight (mice; Female mice, Day 3)	Daily Body Weight (mice; Female mice, Day 4)	Daily Body Weight (mice; Female mice, Day 5)	Daily Body Weight (mice; Female mice, Day 6)	Adhesion Degree of Colon [1]	Colon weight to length ratio [1]	Inhibitory rate of colon adhesion [1]	Inhibitory rate of ulcer area of colon [1]	Inhibitory rate of weight increase per length [1]	Ulcer area of colon [1]	Body weight ([1]; Day 0)	Body weight ([1]; Day 1)	Body weight ([1]; Day 2)	Body weight ([1]; Day 3)	Body weight ([1]; Day 4)	Body weight ([1]; Day 5)	Body weight ([1]; Day 6)	Body weight ([1]; Day 7)	other results
COCCCCN1C(=O)CCC(N2C(=O)c3cccc(N)c3C2=O)C1=O (centres unmarked) [Example 22, 4-amino-2-(1-(4-methoxybutyl)-2,6-dioxopiperidin-3-yl)isoindolin-1,3-dione]	18.5 ± 0.6 g	21.8 ± 0.3 g	22.9 ± 0.4 g	24.0 ± 1.0 g	25.0 ± 0.4 g	25.3 ± 0.6 g	0.8 ± 0.9 point	112 ± 40 mg/cm	52.9# %	40.5%	54.4# %	1.84 ± 2.59 cm^2	137.5 ± 7.2 g	137.0 ± 9.0 g	139.7 ± 11.2 g	144.1 ± 12.7 g	152.6 ± 20.0 g	162.7 ± 19.0 g	170.5 ± 17.7 g	178.3 ± 20.7 g	Daily Body Weight (mice; Female mice, Day 7): 25.6 ± 0.2 g; Daily Body Weight (mice; Male mice, Day 1): 17.1 ± 0.3 g; Daily Body Weight (mice; Male mice, Day 2): 22.9 ± 0.8 g; Daily Body Weight (mice; Male mice, Day 3): 23.5 ± 0.9 g; Daily Body Weight (mice; Male mice, Day 4): 25.2 ± 0.5 g; Daily Body Weight (mice; Male mice, Day 5): 27.2 ± 1.9 g; Daily Body Weight (mice; Male mice, Day 6): 27.1 ± 1.8 g; Daily Body Weight (mice; Male mice, Day 7): 27.4 ± 1.9 g
COCCCN1C(=O)CCC(N2C(=O)c3cccc(NC(C)=O)c3C2=O)C1=O (centres unmarked) [Example 16, 4-acetylamino-2-(1-(3-methoxypropyl)-2,6-dioxopiperidin-3-yl)isoindolin-1,3-dione]							1.1 ± 0.8 point	114 ± 23 mg/cm	35.3%	72.8# %	51.9# %	0.84 ± 1.25# cm^2	137.3 ± 1.7 g	135.9 ± 3.7 g	137.6 ± 7.0 g	145.0 ± 9.2 g	155.2 ± 10.9 g	166.8 ± 10.2 g	171.5 ± 15.1 g	184.3 ± 13.8 g	
COCCN1C(=O)CCC(N2C(=O)c3ccc(N)cc3C2=O)C1=O (centres unmarked) [Example 7, 5-amino-2-(1-(2-methoxyethyl)-2,6-dioxopiperidin-3-yl)isoindolin-1,3-dione]							0.9 ± 0.8 point	127 ± 52 mg/cm	47.1# %	75.1%	35.4%	0.77 ± 1.05 cm^2	136.1 ± 2.5 g	136.7 ± 3.7 g	137.0 ± 8.7 g	141.6 ± 11.9 g	148.2 ± 12.7 g	159.2 ± 13.2 g	168.0 ± 15.7 g	173.5 ± 18.5 g	
COCCN1C(=O)CCC(N2C(=O)c3cccc(F)c3C2=O)C1=O (centres unmarked) [Example 4, 4-fluoro-2-(1-(2-methoxyethyl)-2,6-dioxopiperidin-3-yl)isoindolin-1,3-dione]	18.4 ± 0.4 g	21.8 ± 0.5 g	23.2 ± 0.6 g	23.5 ± 1.2 g	24.7 ± 0.9 g	24.2 ± 1.2 g	0.6 ± 0.7 point	125 ± 34 mg/cm	64.7## %	81.2# %	38.0%	0.58 ± 0.78# cm^2	137.1 ± 6.2 g	136.2 ± 4.1 g	138.2 ± 6.9 g	141.1 ± 8.8 g	151.8 ± 13.4 g	162.5 ± 13.0 g	170.8 ± 13.0 g	181.0 ± 12.2 g	Daily Body Weight (mice; Female mice, Day 7): 24.0 ± 0.8 g; Daily Body Weight (mice; Male mice, Day 1): 17.6 ± 0.2 g; Daily Body Weight (mice; Male mice, Day 2): 22.2 ± 0.3 g; Daily Body Weight (mice; Male mice, Day 3): 23.6 ± 0.6 g; Daily Body Weight (mice; Male mice, Day 4): 24.7 ± 0.6 g; Daily Body Weight (mice; Male mice, Day 5): 26.7 ± 0.4 g; Daily Body Weight (mice; Male mice, Day 6): 27.6 ± 0.8 g; Daily Body Weight (mice; Male mice, Day 7): 28.2 ± 0.1 g
COCCN1C(=O)CCC(N2C(=O)c3ccc(F)cc3C2=O)C1=O (centres unmarked) [Example 21, 5-fluoro-2-(1-(2-methoxyethyl)-2,6-dioxopiperidin-3-yl)-isoindolin-1,3-dione]							0.9 ± 0.7 point	104 ± 17 mg/cm	47.1# %	70.0%	64.6## %	0.93 ± 1.52 cm^2	135.6 ± 6.9 g	134.4 ± 6.8 g	133.9 ± 6.8 g	138.7 ± 6.8 g	146.4 ± 6.9 g	157.9 ± 8.9 g	168.3 ± 4.6 g	173.5 ± 7.4 g	
